Results published in PubChem BioAssay (NCI).
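Dose response: 5 concentrations. Exposure: 48 h. Format: 96-well plates. Endpoint: linear interpolation; highest concentration if not reached. GI50 = concentration required for 50% inhibition of growth. Definition used: TGI = concentration required for complete inhibition of growth.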

Columns and labels:
Test in all cases: NCI anticancer screen, dose series, 48 h
786-0 renal = tested on: 786-0 renal
A549 NSCLC = tested on: A549 NSCLC
ACHN renal = tested on: ACHN renal
CAKI-1 renal = tested on: CAKI-1 renal
CCRF-CEM leukemia = tested on: CCRF-CEM leukemia
COLO 205 colon = tested on: COLO 205 colon
DU-145 prostate = tested on: DU-145 prostate
EKVX NSCLC = tested on: EKVX NSCLC
HCC-2998 colon = tested on: HCC-2998 colon
HCT-116 colon = tested on: HCT-116 colon
HCT-15 colon = tested on: HCT-15 colon
HL-60(TB) leukemia = tested on: HL-60(TB) leukemia
HOP-62 NSCLC = tested on: HOP-62 NSCLC
HS 578T breast = tested on: HS 578T breast
HT29 colon = tested on: HT29 colon
IGROV1 ovarian = tested on: IGROV1 ovarian
K-562 leukemia = tested on: K-562 leukemia
KM12 colon = tested on: KM12 colon
LOX IMVI melanoma = tested on: LOX IMVI melanoma
M14 melanoma = tested on: M14 melanoma
MALME-3M melanoma = tested on: MALME-3M melanoma
MCF7 breast = tested on: MCF7 breast
MDA-MB-231 breast = tested on: MDA-MB-231 breast
MDA-MB-435 = tested on: MDA-MB-435
MDA-N = tested on: MDA-N
MOLT-4 leukemia = tested on: MOLT-4 leukemia
NCI-H226 lung = tested on: NCI-H226 lung
NCI-H23 lung = tested on: NCI-H23 lung
NCI-H460 lung = tested on: NCI-H460 lung
NCI-H522 lung = tested on: NCI-H522 lung
NCI/ADR-RES ovarian = tested on: NCI/ADR-RES ovarian
OVCAR-3 ovarian = tested on: OVCAR-3 ovarian
OVCAR-4 ovarian = tested on: OVCAR-4 ovarian
OVCAR-5 ovarian = tested on: OVCAR-5 ovarian
PC-3 prostate = tested on: PC-3 prostate
RPMI-8226 leukemia = tested on: RPMI-8226 leukemia
RXF 393 renal = tested on: RXF 393 renal
SF-268 CNS = tested on: SF-268 CNS
SF-295 CNS = tested on: SF-295 CNS
SF-539 CNS = tested on: SF-539 CNS
SK-MEL-2 melanoma = tested on: SK-MEL-2 melanoma
SK-MEL-28 melanoma = tested on: SK-MEL-28 melanoma
SK-MEL-5 melanoma = tested on: SK-MEL-5 melanoma
SK-OV-3 ovarian = tested on: SK-OV-3 ovarian
SN12C renal = tested on: SN12C renal
SNB-19 CNS = tested on: SNB-19 CNS
SNB-75 CNS = tested on: SNB-75 CNS
SR leukemia = tested on: SR leukemia
SW-620 colon = tested on: SW-620 colon
T-47D breast = tested on: T-47D breast
TK-10 renal = tested on: TK-10 renal
U251 CNS = tested on: U251 CNS
UACC-257 melanoma = tested on: UACC-257 melanoma
UACC-62 melanoma = tested on: UACC-62 melanoma
UO-31 renal = tested on: UO-31 renal
A498 renal = tested on: A498 renal
BT-549 breast = tested on: BT-549 breast
HOP-92 NSCLC = tested on: HOP-92 NSCLC
OVCAR-8 ovarian = tested on: OVCAR-8 ovarian

In the case of `O=C(Nc1ccccc1)c1nn(-c2cc(S(=O)(=O)O)c([N+](=O)[O-])cc2Cl)[n+](-c2cc(S(=O)(=O)[O-])c([N+](=O)[O-])cc2Cl)n1`, the TGI (786-0 renal) is reported as > 100 µM, the TGI (A549 NSCLC) is reported as > 100 µM and the TGI (ACHN renal) is reported as > 100 µM. For the same compound, the TGI (CAKI-1 renal) was > 100 µM, the TGI (CCRF-CEM leukemia) was > 100 µM and the TGI (COLO 205 colon) was > 100 µM. The TGI (DU-145 prostate) was > 100 µM, the TGI (EKVX NSCLC) was > 100 µM and the TGI (HCC-2998 colon) was > 100 µM. The TGI (HCT-116 colon) was > 100 µM, the TGI (HCT-15 colon) was > 100 µM and the TGI (HL-60(TB) leukemia) was > 100 µM. The TGI (HOP-62 NSCLC) was > 100 µM, the TGI (HS 578T breast) was > 100 µM and the TGI (HT29 colon) was > 100 µM. The TGI (IGROV1 ovarian) was > 100 µM, the TGI (K-562 leukemia) was > 100 µM and the TGI (KM12 colon) was > 100 µM. For the same compound, the TGI (LOX IMVI melanoma) was > 100 µM, the TGI (M14 melanoma) was > 100 µM and the TGI (MALME-3M melanoma) was > 100 µM. The TGI (MCF7 breast) was > 100 µM, the TGI (MDA-MB-231 breast) was 94 µM and the TGI (MDA-MB-435) was > 100 µM. The TGI (MDA-N) was > 100 µM, the TGI (MOLT-4 leukemia) was > 100 µM and the TGI (NCI-H226 lung) was > 100 µM. The TGI (NCI-H23 lung) was > 100 µM, the TGI (NCI-H460 lung) was > 100 µM and the TGI (NCI-H522 lung) was > 100 µM. For the same compound, the TGI (NCI/ADR-RES ovarian) was > 100 µM, the TGI (OVCAR-3 ovarian) was > 100 µM and the TGI (OVCAR-4 ovarian) was > 100 µM. For the same compound, the TGI (OVCAR-5 ovarian) was > 100 µM, the TGI (PC-3 prostate) was > 100 µM and the TGI (RPMI-8226 leukemia) was > 100 µM. The TGI (RXF 393 renal) was > 100 µM, the TGI (SF-268 CNS) was > 100 µM and the TGI (SF-295 CNS) was > 100 µM. The TGI (SF-539 CNS) was > 100 µM, the TGI (SK-MEL-2 melanoma) was > 100 µM and the TGI (SK-MEL-28 melanoma) was > 100 µM. The TGI (SK-MEL-5 melanoma) was > 100 µM, the TGI (SK-OV-3 ovarian) was > 100 µM and the TGI (SN12C renal) was > 100 µM. For the same compound, the TGI (SNB-19 CNS) was > 100 µM, the TGI (SNB-75 CNS) was > 100 µM and the TGI (SR leukemia) was > 100 µM. The TGI (SW-620 colon) was > 100 µM, the TGI (T-47D breast) was > 100 µM and the TGI (TK-10 renal) was > 100 µM. For the same compound, the TGI (U251 CNS) was > 100 µM, the TGI (UACC-257 melanoma) was > 100 µM and the TGI (UACC-62 melanoma) was > 100 µM. For the same compound, the TGI (UO-31 renal) was > 100 µM.
Work on `CCCCCCNC(=O)c1cc(CCc2cc(O)ccc2O)ccc1O` yielded a TGI (786-0 renal) of 4.26 µM, a TGI (A498 renal) of 15.4 µM and a TGI (A549 NSCLC) of 36.3 µM. It also gave a TGI (ACHN renal) of 7.68 µM, a TGI (BT-549 breast) of 4.35 µM and a TGI (CAKI-1 renal) of 13.6 µM. The TGI (CCRF-CEM leukemia) was > 100 µM, the TGI (COLO 205 colon) was 41.6 µM and the TGI (DU-145 prostate) was 22.7 µM. For the same compound, the TGI (EKVX NSCLC) was 15.8 µM, the TGI (HCC-2998 colon) was 9.68 µM and the GI50 (HCT-116 colon) was 3.59 µM. The TGI (HCT-116 colon) was 13.6 µM, the TGI (HCT-15 colon) was 12.8 µM and the TGI (HL-60(TB) leukemia) was 4.11 µM. The TGI (HOP-62 NSCLC) was 25 µM, the TGI (HOP-92 NSCLC) was 3.87 µM and the TGI (HS 578T breast) was 26.4 µM. For the same compound, the TGI (HT29 colon) was 64.7 µM, the TGI (IGROV1 ovarian) was 5.66 µM and the TGI (K-562 leukemia) was 8.87 µM. It also gave a TGI (KM12 colon) of 39.6 µM, a TGI (LOX IMVI melanoma) of 19.3 µM and a TGI (M14 melanoma) of 18.4 µM. The TGI (MALME-3M melanoma) was 6.47 µM, the TGI (MCF7 breast) was 12.4 µM and the TGI (MDA-MB-231 breast) was 5.8 µM. The TGI (MDA-MB-435) was 19.6 µM, the TGI (MDA-N) was 9.54 µM and the TGI (MOLT-4 leukemia) was > 24.5 µM. For the same compound, the TGI (NCI-H226 lung) was 19.8 µM, the TGI (NCI-H23 lung) was 28.5 µM and the TGI (NCI-H460 lung) was 27.4 µM. For the same compound, the TGI (NCI-H522 lung) was 3.05 µM, the TGI (NCI/ADR-RES ovarian) was > 67.7 µM and the TGI (OVCAR-3 ovarian) was 5.94 µM. It also gave a TGI (OVCAR-4 ovarian) of 6.75 µM, a TGI (OVCAR-5 ovarian) of 19.3 µM and a TGI (OVCAR-8 ovarian) of 17.6 µM. It also gave a TGI (PC-3 prostate) of 6.49 µM, a TGI (RXF 393 renal) of 4.39 µM and a TGI (SF-268 CNS) of 9.9 µM. It also gave a TGI (SF-295 CNS) of 31.3 µM, a GI50 (SF-539 CNS) of 2.18 µM and a TGI (SF-539 CNS) of 5.31 µM. For the same compound, the TGI (SK-MEL-2 melanoma) was 7.4 µM, the TGI (SK-MEL-28 melanoma) was 7.37 µM and the TGI (SK-MEL-5 melanoma) was 15.6 µM. For the same compound, the TGI (SK-OV-3 ovarian) was 25 µM, the GI50 (SN12C renal) was 2.18 µM and the TGI (SN12C renal) was 5.77 µM. The TGI (SNB-19 CNS) was > 50.6 µM, the TGI (SNB-75 CNS) was 14.4 µM and the TGI (SR leukemia) was > 29 µM. The TGI (SW-620 colon) was > 75.9 µM, the TGI (TK-10 renal) was 9.15 µM and the TGI (U251 CNS) was 5.58 µM. It also gave a TGI (UACC-257 melanoma) of 6.26 µM, a GI50 (UACC-62 melanoma) of 3.26 µM and a TGI (UACC-62 melanoma) of 10.1 µM. It also gave a TGI (UO-31 renal) of 2.98 µM.
